Source: patent US20220062262A1, “GSNO REDUCTASE INHIBITOR AS AN ADJUNCT THERAPY WITH REMOTE ISCHEMIC CONDITIONING AND THROMBOLYTIC REPERFUSION THERAPIES IN STROKE” (KING ABDULAZIZ UNIVERSITY, priority 2020, published 2022)

Test system: pMCAL-stroke (permanent occlusion of distal MCA trunk)
Test: Permanent MCA occlusion (pMCAo/pMCAL) stroke model in adult male and ovariectomized female mice
Assay type: in vivo
Conditions: 2.5 mg/kg IV 1 h after stroke, repeated daily for 2 days, males and OVX-females
Method: The procedure for pMCAo was performed in mice as reported by Hoda et al. (Stroke 2012, 43(10):2794-2799). Briefly, under anesthesia, the junction of left zygomatic arch and squamous bone was drilled to make a 2-3 mm burr hole to expose the main trunk of MCA. The left MCA distal to the lenticulostriate branches was electrocauterized carefully without bleeding. The wound was closed, and mice were put under post-op recovery as described above. Sham-operated group underwent similar surgical procedures but without electrocauterization. Cortical LDF (Perimed Inc, Sweden) was performed to confirm the induction of stroke in anesthetized mice. Briefly, mice were anesthetized as above and a shallow indent was made in the parietal skull using a low-speed drill to place the LDF probe holder (PH07-6, Perimed Inc) aligning the holder hole at the stereotaxic coordinates (AP: 2-mm and lateral 3-mm with respect to bregma). The needle of LDF-probe (PH407, Perimed Inc) was inserted into the probe holder and the signal was recorded to confirm a significant drop in CBF following stroke. Mice were anesthetized as above, body temperature was maintained at 37±0.5 ° C., the skull was shaved, and a midline skin incision was made to primarily expose the MCA region. Perfusion images were acquired using PeriCam high resolution LASCA-Imager (PSI-Z system, Perimed Inc.) with a 70-mW built-in laser diode for illumination and 1388×1038 pixels CCD camera installed 10 cm above the skull (speed 19 Hz, and exposure time 6 mSec, 1.3 x 1.3 cm). Acquired video and images were analyzed for the dynamic changes in CBF. Overall perfusion of the ipsilateral ischemic hemisphere was determined, normalized with the equal size of region of interest (ROI) from the uninjured contralateral hemisphere and the relative CBF was calculated. […] Therefore, larger white area indicates higher injury and infarction volume. […] Performance of each mouse on the narrow beam was quantified by measuring the time it took for the mouse to traverse the 100-cm distance on the narrow beam and the number of foot slips that occurred in each trial. […]

Cc1cc(C(N)=O)ccc1-n1c(CCC(=O)O)ccc1-c1ccc(-n2ccnc2)cc1 [GRI therapy, N6022]
restoration of CBF (% CBF, LSCI) vs vehicle (72 h post-pMCAo): improved restoration of CBF in both sexes significantly
infarct progression (TTC infarct volume) (72 h post-stroke): significantly prevented the infarct progression sex-independently in both groups
motor function, narrow beam walk test (time to traverse, foot slips) (72 h post-stroke): equally effective in improving motor function in both sexes
